{
  "source": "patent US7872067B2",
  "about": "“Amphiphilic polymer compositions and their use” (priority 2004, dated 2011)",
  "assay": "Solubility of active compounds in distilled water",
  "data": [
    {"smiles": "Fc1ccc([C@]2(Cn3cncn3)O[C@H]2c2ccccc2Cl)cc1", "note": "(racemic) [epoxyconazole]", "values": [
      {"measurement": "Solubility in distilled water", "value": 6.63, "unit": "µg/mL"}
    ]}
  ]
}
